Test results: patent US20230346827A1 (priority 2020, published 2023)

Assays:
[1] = test system: CD19+ B cells and PBMC + (α-IgM and TCR ligands); assay: BioMAP BT system; assay type: cell-based, human; settings: annotated relative to vehicle controls
Description: (§1) Cell types and stimuli used in each system are as follows: 3C system [HUVEC + (IL-1β, TNFα and IFNy)], 4H system [HUVEC + (IL-4 and histamine)], LPS system [PBMC and HUVEC + LPS (TLR4 ligand)], SAg system [PBMC and HUVEC + TCR ligands], BT system [CD19+ B cells and PBMC + (α-IgM and TCR ligands)], BF4T system [bronchial epithelial cells and HDFn + (TNFα and IL-4)], BE3C system [bronchial epithelial cells + (IL-1β, TNFα and IFNy)], CASM3C system [coronary artery smooth muscle cells + (IL-1 β, TNFα and IFNy)], HDF3CGF system [HDFn + (IL-1β, TNFα, IFNy, EGF, bFGF and PDGF-BB)], KF3CT system [keratinocytes and HDFn + (IL-1β, TNFα, IFNy and TGFβ)], MyoF system [differentiated lung myofibroblasts + (TNFα and TGFβ)] and Mphg system [HUVEC and M1 macrophages + Zymosan (TLR2 ligand)].
(§2) Systems are derived from either single cell types or co-culture systems. Adherent cell types are cultured in 96 or 384-well plates until confluence, followed by the addition of PBMC (SAg and LPS systems). […] Soluble factors from supernatants are quantified using either HTRF® detection, bead-based multiplex immunoassay or capture ELISA. Overt adverse effects of test agents on cell proliferation and viability (cytotoxicity) are detected by sulforhodamine B (SRB) staining, for adherent cells, and alamarBlue® reduction for cells in suspension. […]

ALS patients = assay: ALSFRS-R / clinical observation in ALS patients (Example 15); assay type: in vivo, human; settings: five-week treatment period
Procedure: Dextran sulfate (Tikomed AB, Viken, Sweden, WO 2016/076780) was administered at 1 mg/kg by […] subcutaneous injection once a week for five weeks to 13 human patients suffering from ALS.
ALSFRS-R was assessed pre-treatment and weekly thereafter for the 5 treatment weeks and for the visits at the follow-up period.

[2] = test system: HUVEC and M1 macrophages + Zymosan (TLR2 ligand); assay: BioMAP Mphg system; assay type: cell-based, human; settings: annotated relative to vehicle controls
Description: as §1, §2

blood coagulation (APTT) = assay: Activated partial thromboplastin time (APTT) in blood of ALS patients after s.c. LMW-DS 1 mg/kg (Example 5); assay type: in vivo, human
Procedure: This was a single-centre, open single-arm study where the safety, tolerability and efficacy of subcutaneous (s.c.) administered LMW-DS was evaluated in patients with ALS. There were 10 planned visits to the clinic: 1 screening visit divided in 2 parts (Visit 1a and Visit 1b), 5 IMP administration visits (Visit 2 to Visit 6) and 3 follow-up visits (Visit 7 to Visit 9). Each individual patient’s study participation was planned to be approximately 4 months, including the screening and follow-up visits.
The active pharmaceutical ingredient of the IMP was a low molecular weight dextran sulfate (LMW-DS), (ILB®, Tikomed AB, Viken, Sweden, WO 2016/076780). LMW-DS was prepared as a solution for s.c. injection and consisted of 20 mg/mL LMW-DS and 9 mg/mL NaCl. Each glass vial contained 10 mL. The dose administered depended on the patient’s body weight at Visit 2, prior to the first LMW-DS administration. LMW-DS was injected s.c. on alternating sides of the abdomen, thigh or the buttock (in that order of priority). Five injections of 1 mg/kg, with 1 week dosing interval, were administered. Changes in activated partial thromboplastin time (APTT) were recorded from blood samples taken at each visit.

## sodium salt of dextran sulfate [LMW-DS]
[1]
  Decreased biomarker activity: sIgG, sIL-17F
  Increased biomarker activity: sIL-17A
ALS patients
  severe bulbar paresis (two patients): almost complete resolution
[2]
  Increased biomarker activity: IL-8, CD69
Blood coagulation (APTT); 2 hours post-dosing
  APTT relative change from baseline: +33.5%
Blood coagulation (APTT); 2.5 hours post-dosing
  APTT relative change from baseline: +26.5%
Blood coagulation (APTT); post dosing
  time at which APTT values returned to pre-dose levels: 6 h
